Data on 18 compounds can be found in ChEMBL document CHEMBL3421556, “Bis(aminomethyl)phosphinic Acid, a Highly Promising Scaffold for the Development of Bacterial Urease Inhibitors” (ACS Med Chem Lett, 2015).

The nature of assay [1]: Inhibition of urease from Sporosarcina pasteurii CCM 2056 using urea as substrate by Berthelot colorimetric assay.
A short description of assay [2]: Inhibition of urease from Proteus mirabilis CCM 1944 using urea as substrate by Berthelot colorimetric assay.

For the compound `NCP(=O)(O)CN`, the figures for the Ki in assay [1] (read-out: Ki) and in assay [2] (read-out: Ki) were 80 µM and 82 µM, respectively.
For `CNCP(=O)(O)CN`, in that order: 1.59 µM and 34 µM.
As to `CCCNCP(=O)(O)CN`, the Ki in assay [1] (read-out: Ki) was found to be 11.2 µM; in assay [2] (read-out: Ki), 16 µM.
Take `CCCCNCP(=O)(O)CN`: the Ki in assay [1] (read-out: Ki) was found to be 9.6 µM; in assay [2] (read-out: Ki), 25.9 µM.
The like results for `CC(C)CNCP(=O)(O)CN` were, in that order, 270 µM and 416 µM.
For `CCCCCNCP(=O)(O)CN`, in that order: 13.3 µM and 19 µM.
Take `CCCCCCNCP(=O)(O)CN`: the Ki in assay [1] (read-out: Ki) turned out to be 0.108 µM; in assay [2] (read-out: Ki), 0.202 µM.
For `CCCCCCCNCP(=O)(O)CN`, in that order: 543 µM and 778 µM.
In the case of `CCCCCCCCNCP(=O)(O)CN`, the Ki entry in assay [1] and in assay [2] was “Not Active” throughout.
Turning to `NCP(=O)(O)CNC1CCCCC1`, the Ki result in assay [1] and in assay [2] was “Not Active” throughout.
As for `CN(C)CP(=O)(O)CN`, the Ki was found to be 4.66 µM in assay [1] (read-out: Ki) and 24.4 µM in assay [2] (read-out: Ki).
As for `CCN(CC)CP(=O)(O)CN`, the Ki result in assay [1] and in assay [2] was “Not Active” throughout.
As to `NCP(=O)(O)CN1CCCCC1`, the inhibitory constant (Ki) entry in assay [1] and in assay [2] was “Not Active” throughout.
As to `CN(Cc1ccccc1)CP(=O)(O)CN`, the Ki in assay [1] (read-out: Ki) turned out to be 14.2 µM; in assay [2] (read-out: Ki) it was 58.3 µM.
The like results for `CNCP(=O)(O)CNC` were, in that order, 4.3 µM and 17.2 µM.
As to `O=P(O)(CNCc1ccccc1)CNCc1ccccc1`, the Ki in assay [1] (read-out: Ki) turned out to be 30.1 µM; in assay [2] (read-out: Ki), 24.5 µM.
As to `CN(C)CP(=O)(O)CN(C)C`, the Ki entry is “Not Active” in assay [1] and 243 µM in assay [2] (read-out: Ki).
Take `CC(=O)NO` [ACETOHYDROXAMIC ACID]: the Ki in assay [1] (read-out: Ki) came to 3.3 µM; in assay [2] (read-out: Ki), 5.7 µM.
